Test results reported in ChEMBL document CHEMBL5331047 (Eur J Med Chem, 2022).

Key:
[1] = target: Neuraminidase (Influenza A virus (strain A/USSR/90/1977 H1N1), UniProt P03469, H274Y)
[2] = system: Neuraminidase (Influenza A virus (strain A/USSR/90/1977 H1N1)), P03469 [H274Y]; assay: Induction of drug resistance in influenza A virus H1N1 expressing neuraminidase H274Y mutant assessed as reduction in susceptibility relative to control; type: functional; parameters: scale not given: the % may be the effect or the level left
[3] = Induction of drug resistance in influenza A virus H3N1 expressing neuraminidase N294S mutant assessed as reduction in susceptibility relative to control; type: functional; parameters: scale not given: the % may be the effect or the level left
[4] = Induction of drug resistance in influenza A virus H1N1 expressing neuraminidase I222R mutant assessed as reduction in susceptibility relative to control; type: functional; parameters: scale not given: the % may be the effect or the level left
[5] = Induction of drug resistance in influenza A virus H1N1 expressing neuraminidase S246N mutant assessed as reduction in susceptibility relative to control; type: functional; parameters: scale not given: the % may be the effect or the level left

CC(=O)N[C@@H]1[C@@H](N)CC(C(=O)O)=C[C@H]1OC1CCSC1 (stereo not given in full)
IC50 [1]: 68 nM

CCOC(=O)C1=C[C@@H](OC(CC)CC)[C@H](NC(C)=O)[C@@H](N)C1 [OSELTAMIVIR]
Activity [2]: < 3.5% | Activity [3]: <3.5% | Activity [4]: <3.5% | Activity [5]: <3.5%
